{
  "source": "patent US20180369203A1",
  "about": "“METHODS OF TREATING CANCER BY ADMINISTERING A MEK INHIBITOR IN COMBINATION WITH A PROTEASOME INHIBITOR” (The Jackson Laboratory, priority 2015, published 2018)",
  "key": {"polyQ79": {"test_system": "polyQ79", "test": "polyQ79 aggregate size in HEK293T cells (Coulter counter)", "type": "cell-based", "conditions": "20 nM AZD6244, 100 nM Bortezomib, or both", "description": "FIGS. 5A-Y show MEK and proteasome inhibition provoke protein aggregation and amyloidogenesis. (A-B) WM115 cells treated with 20 nM AZD6244, 100 nM Bortezomib, or both for 24 hr were stained with Lys48-specific ubiquitin antibodies. Arrowheads mark ubiquitin-positive aggregates. Scale bar: 10 μm. Amounts of aggregates per cell were quantitated using ImageJ (median, n≥100, ANOVA). (C-F) Following transfection with polyQ79 plasmids alone or with both polyQ79 and HSF1^S326D plasmids for one day, HEK293T cells were treated with inhibitors as described in (A-B). Cells were either analyzed for aggregate size or stained with 10 μM ThT. (G) Treated tumor cell lines were stained with 10 μM ThT. Geometric means were used to calculate fold changes in ThT fluorescence intensity and the log 2(FC) values were presented as a heat map. (H) HEK293T cells were transfected with LacZ or polyQ79 plasmid. Following treatments, AOs were quantitated by ELISA using A11 antibodies (mean±SD, n=3, ANOVA). (I) Intrinsic AOs were detected in human tumor cell lines (mean±SD, n=3, ANOVA). […] Amyloids were quantitated by ELISA (mean±SD, n=3, Student's t-test). […] AF formation was monitored by ThT binding (mean±SD, n=3, ANOVA). […] Amyloids were quantitated (mean±SD, n=3, Student's t-test). […] Viable cells were quantitated by CellTiter® blue (mean±SD, n=6, Student's t-test). […] Viable cells were quantitated (mean±SD, n=6, ANOVA). […]"}, "GR-GFP": {"test_system": "GR-GFP", "test": "GR-GFP protein stability in HEK293T cells (immunoblotting)", "type": "cell-based", "conditions": "100 nM Bortezomib, 4 hrs", "description": "This figure is related to FIG. 4. (A) HSF1 stabilizes GR-GFP proteins. Both GR-GFP and HA-Ub-K48 plasmids were co-transfected with LacZ or FLAG-HSF1 plasmids into HEK293T cells stably expressing scramble or HSF1-targeting shRNAs. HA-Ub-K48 plasmids encode a mutant ubiquitin that can be conjugated to protein substrates only via lysine 48. GFP-GR proteins were precipitated and ubiquitination was detected by anti-HA immunoblotting. (B) HSF1 maintains cellular chaperoning capacity. Denatured firefly luciferases were incubated with proteins extracted from HEK293T cells stably expressing scramble or HSF1-targeting shRNAs that were transfected with LacZ or FLAG-HSF1 plasmids (mean±SD, n=5, ANOVA). […] Levels of GFP and GR-GFP proteins were detected by immunoblotting. […] Following treatments with 20 μM U0126, 20 nM AZD6244, or 100 nM Bortezomib for 4 hrs, the chymotrypsin-like, trypsin-like, and caspase-like proteasomal activities in A2058 cells (D) and HEK293T cells (E) were measured in vitro using 25 μM Z-LLL-AMC, Boc-LRR-AMC, and Z-LLE-AMC substrates respectively (mean±SD, n=3, ANOVA). […] Lys48-specific protein ubiquitination was detected by immunoblotting in both detergent-soluble and -insoluble fractions. […] Lys48-specific protein ubiquitination was detected by immunoblotting in both detergent-soluble and -insoluble fractions of HEK293T cells that stably expressed scramble or MEK1/2-targeting shRNAs. […]"}},
  "data": [
    {"smiles": "CC(C)C[C@H](NC(=O)[C@H](Cc1ccccc1)NC(=O)c1cnccn1)B(O)O", "note": "[Bortezomib, bortezomib]", "values": [
      {"measurement": "polyQ79 aggregate size", "setting": "polyQ79", "result": "enhanced"},
      {"measurement": "GR-GFP protein level", "setting": "GR-GFP", "result": "caused GR-GFP accumulation"}
    ]}
  ]
}
